Measured values taken from PubChem BioAssay (NCI).
Several values for one entry are separate records, joined by “and”; a condition that tells them apart may be missing. Equal entries are not always repeated.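 Cultured in 96-well plates, cells were exposed to test compound for 48 hours across five concentrations. GI50 = concentration required for 50% inhibition of growth. TGI is the concentration that stops growth completely.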

How the values were obtained:
Test in all cases: inhibition of tumour cell growth, NCI panel, 48 h
[1] = test system: RPMI-8226 leukemia
[2] = test system: SF-295 CNS
[3] = test system: SF-539 CNS
[4] = test system: 786-0 renal
[5] = test system: HT29 colon
[6] = test system: SK-MEL-2 melanoma

| Compound | TGI [1] [µM] | TGI [2] [µM] | TGI [3] [µM] | TGI [4] [µM] | TGI [5] [µM] | TGI [6] [µM] | GI50 [1] [µM] | GI50 [2] [µM] | GI50 [3] [µM] | GI50 [4] [µM] | GI50 [5] | GI50 [6] [µM] |
| --- | --- | --- | --- | --- | --- | --- | --- | --- | --- | --- | --- | --- |
| CS(=O)(=O)NNS(=O)(=O)c1cccc([N+](=O)[O-])c1 | > 100 | > 100 | > 100 | > 100 | > 100 | > 100 | – | – | – | – | – | – |
| COC(=O)C1=C2CCC(=O)[C@@]2(C)C(OC(C)=O)C=CC1 (stereo not given in full) | > 100 | > 100 | > 100 | > 100 | > 100 | > 100 | – | – | – | – | – | – |
| Cc1cc(NS(=O)(=O)c2ccc(N=Nc3cc(N=Nc4ccc(S(=O)(=O)Nc5cc(C)nc(C)n5)cc4)c4c(NC(=O)C(Cl)Cl)cccc4c3OC(=O)C(Cl)Cl)cc2)nc(C)n1 (tested in a mixture with another compound) | – | 77.6 | 42.8 | 35.9 | 46 | 81.1 | – | – | – | – | – | – |
| C/C(=C\C(C)COCc1ccccc1)[C@H](COCc1ccccc1)OCc1ccccc1 (stereo not given in full) | > 100 | > 100 | > 100 | > 100 | > 100 | > 100 | – | – | – | – | – | – |
| O=S(=O)(O)O.[NH-]C1CCCCC1[NH-].[Pt+2] (stereo not given) | > 100 | > 100 | > 100 | > 100 | > 100 | > 100 | 48.6 | > 100 | > 100 | 40.7 | 63.1 µM | > 100 |
| O=c1cccccc1NCCOCCNc1cccccc1=O | > 100 | > 100 | – | > 100 | > 100 | > 100 | – | – | – | – | – | – |
| COc1ccc(C(=O)C(c2ccc(OC)cc2)C2(O)C(=O)Nc3ccccc32)cc1 (stereo not given) | > 100 | > 100 | > 100 | > 100 | > 100 | > 100 | – | – | – | – | – | – |
| CCC[CH2][Sn]1([CH2]CCC)[O]C(=O)c2cc(I)cc(I)c2[O]1 | 1.16 | 3.53 | 2.44 | 2.8 | 4.21 | 1.94 | 0.238 | 1.91 | 1.16 | 1.47 | 2.03 µM | 0.491 |
| Cc1ccc(NC(=O)CCC(CC(=O)C(C)(C)C)=NNC(=O)C(=O)NN)cc1C | > 100 | > 100 | > 100 | > 100 | > 100 | > 100 | – | – | – | – | – | – |
| O=C(O)C(CP(=O)(O)O)=C(Cl)Cl | > 100 | > 100 | > 100 | > 100 | > 100 | > 100 | – | – | – | – | – | – |
| CC(=O)OC(/C=C1/C=CC(=O)O1)COC(=O)c1ccccc1 (stereo not given) | > 31.2 | > 31.2 | > 31.2 | > 31.2 | > 31.2 | – | – | – | – | – | – | – |
| CCOC12OC3=C(CC1CC1=C(CCC1=O)O2)C(=O)CC3 (stereo not given) | > 100 | > 100 | > 100 | > 100 | > 100 | > 100 | – | – | – | – | – | – |
| COC(=O)/C=C1/CCC2[C@@H](C(=O)CC3[C@]2(C)CCC[C@@]3(C)C(=O)OC)C1C (stereo not given in full) | 14.4 | 33.1 | 28.5 | 36 | 20.2 | 35.7 | – | – | – | – | – | – |
| O=c1/c(=C/c2cccc([N+](=O)[O-])c2)sc2nc3ccccc3n12 | – | – | – | > 100 | > 100 | > 100 | – | – | – | – | – | – |
| Cc1ccc(NC(=O)C(=O)C2C(=O)N(c3ccccc3)N=C2N)cc1C (stereo not given) | > 100 | > 100 | > 100 | > 100 | > 100 | – | – | – | – | – | – | – |
| CCOC(=O)C12CCCC1(O)N(NC(=O)c1ccccc1)C(C)=C2C(=O)OC (stereo not given) | > 100 | > 100 | > 100 | > 100 | > 100 | > 100 | – | – | – | – | – | – |
| COc1ccc2c(=O)c(C)c(-c3ccccc3)oc2c1CN(C)C | > 100 | > 100 | > 100 | > 100 | > 100 | – | – | – | – | – | > 100 µM and 30.6 µM | – |
| COc1ccc(C(=O)OCC2OC(n3cnc4c(=S)nc[nH]c43)C(OC(=O)c3ccc(OC)cc3)C2OC(=O)c2ccc(OC)cc2)cc1 (stereo not given) | > 100 | > 100 | > 100 | > 100 | > 100 | > 100 | – | – | – | – | – | – |
| Cc1cc(O)cc2oc(=O)c3c(O)cc(O)cc3c12 | – | 63.6 | 49.2 | > 100 | > 100 | > 100 | – | – | – | – | – | – |
| CCOC(=O)/C(O)=C(/c1n[nH]c(=O)c2ccccc12)[N+](=O)[O-] | > 100 | > 100 | > 100 | > 100 | > 100 | > 100 | – | – | – | – | – | – |
| Cc1[nH]c2ccccc2c1C1Cc2ccccc2N1C(=O)/C=C/C=C/c1ccccc1 (stereo not given) | > 100 | > 100 | > 100 | > 100 | > 100 | > 100 | – | – | – | – | – | – |
| CN(C)CCNC(=O)c1cc2ccccc2c2nc3ccccc3nc12 | 3.42 | – | 1.55 | > 38.2 | 2.9 | 2.81 | – | – | – | – | – | – |
| CCOC(C)C(/C=N/NC(N)=S)=NNC(N)=S (stereo not given) | > 100 | > 100 | > 100 | > 100 | – | > 85.3 | – | – | – | – | – | – |
